From patent US8906852B2 (MethylGene Inc., priority 2010, dated 2014)

Target: T1, VEGFR/KDR (Homo sapiens, UniProt P35968)
T1 construct: made in house; host or cells: Sf9 cells (Spodoptera frugiperda), baculovirus
Experiment: VEGFR/KDR kinase inhibition, DELFIA assay
Assay type: biochemical
Conditions: ATP 0.6 uM (2x Km), enzyme 5 nM
Method in brief: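 Enzyme (5 nM) pre-incubated 4 min on ice with inhibitor and Mg-ATP (0.6 uM, 2× Km), then reacted 10-30 min at 30° C on immobilized poly(Glu4,Tyr). EDTA-quenched phosphotyrosine detected with Europium-labeled antibody by time-resolved fluorescence; IC50 from concentration series.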

T1 sequence (P35968 806-1356): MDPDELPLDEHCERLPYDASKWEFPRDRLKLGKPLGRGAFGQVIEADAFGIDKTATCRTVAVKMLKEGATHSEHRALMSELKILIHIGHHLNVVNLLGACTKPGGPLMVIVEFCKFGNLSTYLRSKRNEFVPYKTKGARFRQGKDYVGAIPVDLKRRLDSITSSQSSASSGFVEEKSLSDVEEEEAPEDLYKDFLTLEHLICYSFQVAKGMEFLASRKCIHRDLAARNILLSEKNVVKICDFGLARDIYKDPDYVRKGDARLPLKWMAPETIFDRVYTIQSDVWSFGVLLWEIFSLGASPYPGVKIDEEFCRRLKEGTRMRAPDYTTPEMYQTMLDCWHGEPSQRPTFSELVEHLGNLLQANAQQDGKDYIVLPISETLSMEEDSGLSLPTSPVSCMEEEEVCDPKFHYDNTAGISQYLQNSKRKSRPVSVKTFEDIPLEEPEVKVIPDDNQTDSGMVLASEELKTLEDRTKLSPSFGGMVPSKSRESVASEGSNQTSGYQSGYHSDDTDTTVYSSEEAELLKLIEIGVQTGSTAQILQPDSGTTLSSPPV

`CCNC(=O)N(CCOC)Cc1cnc(-c2cc3nccc(Oc4ccc(NC(=O)NC5CC5)cc4F)c3s2)n1C` [Compound 161-B, 1-((2-(7-(4-cyclopropylaminocarbonylamino-2-fluorophenoxy)thieno[3,2-b]pyridin-2-yl)-1-methyl-1H-imidazol-5-yl)methyl)-3-ethyl-1-(2-methoxyethyl)urea] and `COCCN(Cc1cnc(-c2cc3nccc(Oc4ccc(NC(=O)NC5CC5)cc4F)c3s2)n1C)C(C)=O` [Compound 212, N-((2-(7-(4-(3-cyclopropylureido)-2-fluorophenoxy)thieno[3,2-b]pyridin-2-yl)-1-methyl-1H-imidazol-5-yl)methyl)-N-(2-methoxyethyl)acetamide] cannot be ordered by IC50: less than 50 nM for the first, less than 50 nM for the second.

`O=C(Nc1ccc(Oc2ccnc3cc(-c4cnn(CCN5CCCC5=O)c4)sc23)c(F)c1)NC1CC1` [Compound 166, 1-cyclopropyl-3-(3-fluoro-4-(2-(1-(2-(2-oxopyrrolidin-1-yl)ethyl)-1H-pyrazol-4-yl)thieno[3,2-b]pyridin-7-yloxy)phenyl)urea] and `Cn1c(C(=O)NCCN2CCOCC2)cnc1-c1cc2nccc(Oc3ccc(NC(=O)NC4CC4)cc3F)c2s1` [Compound 217, 2-(7-(4-(3-cyclopropylureido)-2-fluorophenoxy)thieno[3,2-b]pyridin-2-yl)-1-methyl-N-(2-morpholinoethyl)-1H-imidazole-5-carboxamide] cannot be ordered by IC50: less than 50 nM for the first, less than 50 nM for the second.

`O=C(O)CCCNCc1ccc(-c2cc3nccc(Oc4ccc(NC(=O)NC5CC5)c(F)c4F)c3s2)nc1` [Compound 168, 4-((6-(7-(4-(3-cyclopropylureido)-2,3-difluorophenoxy)thieno[3,2-b]pyridin-2-yl)pyridin-3-yl)methylamino)butanoic acid] and `NC(CCCCNCc1ccc(-c2cc3nccc(Oc4ccc(NC(=O)NC5CC5)c(F)c4F)c3s2)nc1)C(=O)O` (stereo not shown) [Compound 170, 2-amino-6-((6-(7-(4-(3-cyclopropylureido)-2,3-difluorophenoxy)thieno[3,2-b]pyridin-2-1)pyridin-3-yl)methylamino)hexanoic acid] cannot be ordered by IC50: less than 50 nM for the first, less than 50 nM for the second.

`O=C(Nc1ccc(Oc2ccnc3cc(-c4ccc(CN5CCCC5=O)cn4)sc23)c(F)c1F)NC1CC1` [Compound 169, 1-cyclopropyl-3-(2,3-difluoro-4-(2-(5-((2-oxopyrrolidin-1-yl)methyl)pyridin-2-yl)thieno[3,2-b]pyridin-7-yloxy)phenyl)urea] and `O=C(O)CCN1CCN(Cc2ccc(-c3cc4nccc(Oc5ccc(NC(=O)NC6CC6)c(F)c5F)c4s3)nc2)CC1` [Compound 172, 3-(4-((6-(7-(4-(3-cyclopropylureido)-2,3-difluorophenoxy)thieno-[3,2-b]pyridin-2-yl)pyridin-3-yl)methyl)piperazin-1-yl)propanoic acid] cannot be ordered by IC50: less than 50 nM for the first, less than 50 nM for the second.

`COCCOCCOCCOCCNCc1ccc(-c2cc3nccc(Oc4ccc(NC(=O)NC5CC5)c(F)c4F)c3s2)nc1` [Compound 171, 1-(4-(2-(5-5,8,11,14-tetraoxa-2-azapentadecylpyridin-2-yl)thieno[3,2-b]pyridin-7-yloxy)-2,3-diiluorophenyl)-3-cyclopropylurea] and `COCCOCCOCCOCCN(C)Cc1ccc(-c2cc3nccc(Oc4ccc(NC(=O)NC5CC5)cc4F)c3s2)nc1` [Compound 180, 1-cyclopropyl-3-(3-fluoro-4-(2-(5-(2-methyl-5,8,11,14-tetraoxa-2-azapentadecyl)pyridin-2-yl)thieno[3,2-b]pyridin-7-yloxy)phenyl)urea] cannot be ordered by IC50: less than 50 nM for the first, less than 50 nM for the second.

`O=C(Nc1ccc(Oc2ccnc3cc(-c4ccc(CN5CCC[C@H]5C(=O)O)cn4)sc23)c(F)c1)NC1CC1` [Compound 173, (S)-1-((6-(7-(4-(3-cyclopropylureido)-2-fluorophenoxy)thieno[3,2-b]pyridin-2-yl)pyridin-3-yl)methyl)pyrrolidine-2-carboxylic acid] and `O=C(Nc1ccc(Oc2ccnc3cc(-c4ccc(CCN5CCOCC5)cn4)sc23)c(F)c1)NC1CC1` [Compound 178, 1-cyclopropyl-3-(3-fluoro-4-(2-(5-(2-morpholinoethyl)pyridin-2-yl)thieno[3,2-b]pyridin-7-yloxy)phenyl)urea] cannot be ordered by IC50: less than 50 nM for the first, less than 50 nM for the second.

`COCCNCCc1ccc(-c2cc3nccc(Oc4ccc(NC(=O)Nc5cc(C)on5)cc4F)c3s2)nc1` [Compound 183, 1-(3-fluoro-4-(2-(5-(2-(2-methoxyethylamino)ethyl)pyridin-2-yl)thieno[3,2-b]pyridin-7-yloxy)phenyl)-3-(5-methylisoxazol-3-yl)urea] and `COCCNCCc1ccc(-c2cc3nccc(Oc4ccc(NC(=O)C5(C(=O)Nc6ccc(F)cc6)CC5)cc4F)c3s2)nc1` [Compound 185, N-(3-fluoro-4-(2-(5-(2-(2-methoxyethylamino)ethyl)pyridin-2-yl)thieno[3,2-b]pyridin-7-yloxy)phenyl)-N-(4-fluorophenyl)cyclopropane-1,1-dicarboxamide] cannot be ordered by IC50: less than 50 nM for the first, less than 50 nM for the second.

`COCCNCCc1ccc(-c2cc3nccc(Oc4ccc(NC(=S)NC(=O)Cc5ccc(F)cc5)cc4F)c3s2)nc1` [Compound 187, N-(3-fluoro-4-(2-(5-(2-(2-methoxyethylamino)ethyl)pyridin-2-yl)thieno[3,2-b]pyridin-7-yloxy)phenylcarbamothioyl)-2-(4-fluorophenyl)acetamide] and `COCCN(Cc1ccc(-c2cc3nccc(Oc4ccc(NC(=O)NC5CC5)cc4F)c3s2)nc1)C(=O)NC(C)C` [Compound 190, 1-((6-(7-(4-cyclopropylaminocarbonylamino-2-fluorophenoxy)-thieno[3,2-b]pyridin-2-yl)pyridin-3-yl)methyl)-3-isopropyl-1-(2-methoxyethyl)urea] cannot be ordered by IC50: less than 50 nM for the first, less than 50 nM for the second.

`COCCN(Cc1cnc(-c2cc3nccc(Oc4ccc(NC(=O)NC5CC5)cc4F)c3s2)n1C)C(=O)NC(C)C` [Compound 189] and `COCCN(Cc1ccc(-c2cc3nccc(Oc4ccc(NC(=O)NC5CC5)cc4F)c3s2)cc1)C(=O)NC(C)C` [Compound 193, 1-(4-(7-(4-cyclopropylaminocarbonylamino-2-fluorophenoxy)thieno-[3,2-b]pyridin-2-yl)benzyl)-3-isopropyl-1-(2-methoxyethyl)urea] cannot be ordered by IC50: less than 50 nM for the first, less than 50 nM for the second.

`COCCN(Cc1ccc(-c2cc3nccc(Oc4ccc(NC(=O)NC5CC5)cc4F)c3s2)cc1)C(=O)NC1CCCC1` [Compound 194, 1-(4-(7-(4-cyclopropylaminocarbonylamino-2-fluorophenoxy)thieno-[3,2-b]pyridin-2-yl)benzyl)-3-cyclopentyl-1-(2-methoxyethyl)urea] and `CCNC(=O)N(CCOC)Cc1ccc(-c2cc3nccc(Oc4ccc(NC(=O)NC5CC5)cc4F)c3s2)cc1` [Compound 195, 1-(4-(7-(4-cyclopropylaminocarbonylamino-2-fluorophenoxy)thieno[3,2-b]pyridin-2-yl)benzyl)-3-ethyl-1-(2-methoxyethyl)urea] cannot be ordered by IC50: less than 50 nM for the first, less than 50 nM for the second.

First: CC(C)NC(=O)Nc1ccc(Oc2ccnc3cc(-c4ccc(CN5CCCOC5=O)cn4)sc23)c(F)c1 [Compound 201, 1-(3-fluoro-4-(2-(5-((2-oxo-1,3-oxazinan-3-yl)methyl)pyridin-2-yl)thieno[3,2-b]pyridin-7-yloxy)phenyl)-3-isopropylurea]
Second: CC(C)NC(=O)Nc1ccc(Oc2ccnc3cc(-c4ccc(CN5CCCC5=O)cc4)sc23)c(F)c1 [Compound 205, 1-(3-fluoro-4-(2-(4-((2-oxopyrrolidin-1-yl)methyl)phenyl)thieno[3,2-b]pyridin-7-yloxy)phenyl)-3-isopropylurea]
The IC50 of the first is lower: less than 50 nM for the first, 50 to 100 nM for the second.
